Test results published in US20040005294A1, “IGFBP-3 in the diagnosis and treatment of cancer” (priority 2002, published 2004).

Columns and labels:
[1] = system: 1799, 1198 and 1170-1 cells; experiment: Cell cycle analysis by flow cytometry, HBE cell lines; assay type: cell-based, human; conditions: 10^−8 M or 10^−7 M, 3 days
Procedure: NHBE and 1799 cells were plated at a concentration of 2×10^5 cells/well in six-well plates. The next day, cells were treated with deguelin (various concentrations) or DMSO (0.1%) for 3 days to achieve maximal antiproliferative effects (determined from growth curves). All cells (nonadherent and adherent) were harvested, fixed with 1% paraformaldehyde and 70% ethanol, stained with 50 μg/mL propidium iodide, and subjected to flow cytometric analysis to determine the percentage of cells in specific phases of the cell cycle (G1, S, and G2/M) as described (Sun et al., 1997). Flow cytometric analysis was performed using a Coulter EPICS Profile II flow cytometer (Coulter Corp., Miami, Fla.) equipped with a 488-nm argon laser. Approximately 10 000 events (cells) were evaluated for each sample. Two independent experiments were performed and one is presented.

[2] = system: ERK1/2 in 1799 cells; experiment: Immune complex kinase assay for ERK1/2; assay type: cell-based, human; conditions: 10^−7 M, 0-24 h, then 50 ng/mL IGF-I for 15 min
Procedure: (§1) Approximately 5×10^6 1799 cells were treated with 10^−7 M deguelin or 0.1% DMSO for various time periods in the absence of any additional stimulatory growth factors. The cells were then treated with 50 ng/mL IGF-I for 15 minutes to activate MAPK. Total cell extracts were prepared in lysis buffer (Lonardo et al. 2002), and ERK-1/2 or c-Jun N-terminal kinase (JNK) were immunoprecipitated from 100 μg of each cell extract using antibodies (1 μg) that recognize ERK1/2 or JNK (Santa Cruz Biotechnology) and protein-A sepharose beads (20 μL) (Amersham Pharmacia Biotech). Kinase assays were performed by incubating the beads with 30 μL of kinase buffer to which 5 μCi of [γ^32P]ATP (2000 cpm/pmol) and 1 μg of substrate (myelin basic protein [MBP; Calbiochem, La Jolla, Calif.] or GST-cJun [Santa Cruz Biotechnology]) were added, as previously described (Lee et al., 2002). The samples were suspended in Laemmli buffer, boiled for 5 min, and then analyzed by SDS-polyacrylamide gel clectrophoresis. The gel was dried and autoradiographed. Total cell lysates from Jurkat cells (Upstate Biotechnology, Inc.) and H1299 NSCLC treated with 50 ng/mL IGF-I for 15 min were used as positive controls. Changes in the level of phosphorylation in MBP or GST-cJun reflect changes in Erk1/2 and JNK activity, respectively.

[3] = system: premalignant and malignant HBE cell lines; experiment: MTT proliferation assay, premalignant and malignant HBE cell lines; assay type: cell-based; conditions: Homo sapiens, range tested 10^−9 M to 10^−7 M, read-out: IC50 (growth inhibition)
Procedure: (§2) To measure the effects of deguelin on cell proliferation, NHBE, 1799, 1198, 1170-1, and HB56B cells were plated at concentrations of 2×10^3 to 4×10^3 cells/well in 96-well plates. The next day, cells were treated with either 0.1% DMSO as a diluent control or various concentrations of deguelin (final DMSO concentration=0.1%). At the end of the assay time period, cell proliferation was measured by the 3-(4,5-dimethylthiazol-2-yl)-2,5-diphenyltetrazolium bromide (MTT) assay as described (Lee et al., 2002). Six replicate wells were used for each analysis, and data from replicate wells are presented as means with 95% confidence intervals (CIs). For some experiments, the drug concentration required to inhibit cell growth by 50% (IC50) was determined by interpolation from dose-response curves. At least three independent experiments were performed.

[4] = system: 1799 cells; experiment: Apoptosis by APO-BrdU (modified TUNEL) flow cytometry, 1799 cells; assay type: cell-based, human
Procedure: (§3) NHBE, premalignant (1799 and 1198), and malignant (1170-1) HBE (2×10^6) cells were exposed to various doses of deguelin or to DMSO (0.1%) for 3 days. Apoptosis was assessed by morphology, by a flow cytometry-based, modified terminal deoxynucleotidyl transferase dUTP nick end labeling (TUNEL) assay, and by the detection of fragmented DNA. For morphology, live cells were observed by light microscopy using a ×100 objective. For TUNEL analysis, both adherent and nonadherent cells were harvested and pooled, fixed with 1% paraformaldehyde and 70% ethanol, and processed using the APO-BrdU staining kit (Phoenix Flow Systems, San Diego, Calif.), a modified TUNEL assay, as described (Lee et al., 2002). Cells treated with DMSO were used to gate the control nonapoptotic populations and as a reference for cells treated with deguelin. An internal control (HL-60 cells treated with camptothecin to induce apoptosis) provided in the apoptosis detection kit was also used to ensure that the TUNEL reaction was occurring during the staining procedure. For the detection of fragmented nucleosomal DNA, cells were processed using the TACS apoptotic DNA laddering kit (Trevigen Inc., Gaithersburg, Md.), according to the manufacturer's recommended protocol.
(§4) To determine whether deguelin-induced antiproliferative effects on premalignant HBE cells were mediated through the inhibition of the PI3K/Akt pathway, 2×10^5 1799 cells/well or 1×10 ^6 squamous HBE cells/well in six-well plates were infected with 5×10 ^3 particles/cell of a control virus (Ad5CMV) or with 1×10^3 or 5×10^3 particles/cell of Ad5CMV-MyrAkt-HA, an adenoviral vector that expresses a constitutively active Akt. (MyrAkt) in KSFM. After 1 day of infection, cells were treated with 10^−7M or 10^−6M deguelin, 2×10^−6 M or 4×10^−6M N-(4-hydroxyphenyl)retinamide (4-HPR), or 0.1% DMSO as a control and then incubated for 1 or 2 days. Apoptosis was analyzed using the APO-BrdU staining kit for TUNEL, Western blot analyses for caspase-3, and the cleavage of PARP.

[5] = system: JNK in 1799 cells; experiment: Immune complex kinase assay for JNK; assay type: cell-based, human; conditions: 10^−7 M
Procedure: as §1

[6] = system: NHBE cells; experiment: Apoptosis by TUNEL and DNA fragmentation, NHBE cells; assay type: cell-based, human
Procedure: as §3

[7] = system: 1799 cells; experiment: MTT proliferation assay, 1799 cells; assay type: cell-based, human
Procedure: as §2, §4

[8] = system: HB56B cells; experiment: MTT proliferation assay, HB56B cells; assay type: cell-based, human; conditions: 10^−9 M to 10^−7 M, 1-3 days
Procedure: as §2

SMILES: COc1cc2c(cc1OC)[C@@H]1C(=O)c3ccc4c(c3O[C@@H]1CO2)C=CC(C)(C)O4 [deguelin, Deguelin]
- cell cycle distribution [1]: accumulated in the G2/M phase
- ERK1/2 activity [2]: no discernible effect
- IC50 [3]: < 10 nM
- cells undergoing apoptosis ([4]; 10^−7 M, 2 days, 1799 cells infected with Ad5CMV-MyrAkt-HA): less than 10%
- cells undergoing apoptosis ([4]; 10^−7 M, 2 days, 1799 cells uninfected or infected with control adenovirus): approximately 40%
- cells undergoing apoptosis ([4]; 10^−7 M, 3 days): 92.2%
- cells undergoing apoptosis ([4]; 10^−8 M, 3 days): 68.5%
- cells undergoing apoptosis ([4]; 10^−9 M, 3 days): approximately 3.3%
- JNK activity [5]: not affected
- apoptosis (TUNEL, DNA fragmentation) [6]: neither a TUNEL-positive cell population nor fragmented DNA
- reversibility of effects on cell growth ([7]; 10^−7 M for 1, 2 or 3 days, then 5 days without deguelin): irreversible
- decrease in cell growth ([7]; 10^−7 M, 1 day): 67.1%
- effect on growth ([7]; 1799 cells infected with Ad5CMV-MyrAkt-HA, 10^−6 M): did not decrease the growth
- decrease in growth relative to untreated control ([7]; 1799 cells uninfected or infected with 5×10^3 particles/cell Ad5CMV, 10^−7 M, 2 days): 54%
- activity at 0.1 µM ([7]; Homo sapiens, read-out: growth as percent of control cell growth): 85%
- effect on growth of HB56B cells [8]: Dose- and time-dependent growth-inhibitory effects
